Among the data in ChEMBL document CHEMBL4261526 (Medchemcomm, 2017) are IC50, Ratio IC50 and viability values, retold here.

Data set [1] has as its target T1, Acetylcholinesterase (Homo sapiens, UniProt P22303). Nature of the data set: Inhibition of recombinant human AChE using acetylthiocholine iodide as substrate preincubated for 30 mins followed by substrate addition and measured for 20 mins by Ellman's assay. In general terms: DTNB colorimetry detects thiols as they appear.
For data set [2], the species on record is Homo sapiens. Nature of the data set: Selectivity ratio of IC50 for recombinant human BuChE to IC50 for recombinant human AChE.
In data set [3] the target is T2, Cholinesterase (Homo sapiens, UniProt P06276). Nature of the data set: Inhibition of recombinant human BuChE using butyrylthiocholine as substrate preincubated for 30 mins followed by substrate addition and measured for 20 mins by Ellman's assay.
Data set [4] can be described thus: in vitro. The note with it: human, HepG2 cells.
Description: Cytotoxicity against human HepG2 cells assessed as cell viability at 10 uM by MTT assay relative to control
For data set [5], the target named is T2, Cholinesterase. Briefly: Inhibition of human serum BuChE using butyrylthiocholine iodide as substrate preincubated for 20 mins followed by substrate addition and measured for 5 mins by Ellman's assay.
The nature of data set [6]: in vitro. The note with it: human, HepG2 cells. The source holds these as a separate data set.
Description: Cytotoxicity against human HepG2 cells assessed as cell viability at 300 uM by MTT assay relative to control
The target of data set [7] is T1, Acetylcholinesterase. Nature of the data set: Inhibition of recombinant human AChE using acetylthiocholine iodide as substrate preincubated for 20 mins followed by substrate addition and measured for 5 mins by Ellman's assay.
The target of data set [8] is T2, Cholinesterase. Nature of the data set: Potency index, ratio of tacrine IC50 to test compound IC50 for human serum BuChE.
The target in data set [9] is T1, Acetylcholinesterase. Briefly: Potency index, ratio of tacrine IC50 to test compound IC50 for recombinant human AChE.
The nature of data set [10]: in vitro. Particulars: human, HepG2 cells. The source holds these as a separate data set.
Description: Cytotoxicity against human HepG2 cells assessed as cell viability at 100 uM by MTT assay relative to control
A short description of data set [11]: in vitro. The note with it: human, HepG2 cells. The source holds these as a separate data set.
Description: Cytotoxicity against human HepG2 cells assessed as cell viability at 1 uM by MTT assay relative to control

pIC50: −log10 of the molar value.

T2 sequence (P06276 whole entry): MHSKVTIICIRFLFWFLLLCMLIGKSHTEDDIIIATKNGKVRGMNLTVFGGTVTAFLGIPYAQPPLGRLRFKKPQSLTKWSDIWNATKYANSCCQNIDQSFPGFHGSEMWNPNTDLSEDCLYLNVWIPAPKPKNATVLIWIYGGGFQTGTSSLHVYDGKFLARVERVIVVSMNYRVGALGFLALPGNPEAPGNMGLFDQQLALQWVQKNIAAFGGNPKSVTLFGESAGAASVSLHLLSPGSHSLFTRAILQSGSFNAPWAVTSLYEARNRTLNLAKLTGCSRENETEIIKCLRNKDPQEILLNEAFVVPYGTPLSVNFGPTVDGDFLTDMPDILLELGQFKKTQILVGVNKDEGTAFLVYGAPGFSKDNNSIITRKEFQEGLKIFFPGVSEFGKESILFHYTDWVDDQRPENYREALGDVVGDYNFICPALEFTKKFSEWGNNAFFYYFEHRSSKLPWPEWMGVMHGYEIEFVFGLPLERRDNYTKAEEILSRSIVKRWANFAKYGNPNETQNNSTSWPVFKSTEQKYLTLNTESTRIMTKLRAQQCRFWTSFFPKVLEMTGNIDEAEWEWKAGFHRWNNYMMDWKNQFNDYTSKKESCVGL
T1 sequence (P22303 whole entry): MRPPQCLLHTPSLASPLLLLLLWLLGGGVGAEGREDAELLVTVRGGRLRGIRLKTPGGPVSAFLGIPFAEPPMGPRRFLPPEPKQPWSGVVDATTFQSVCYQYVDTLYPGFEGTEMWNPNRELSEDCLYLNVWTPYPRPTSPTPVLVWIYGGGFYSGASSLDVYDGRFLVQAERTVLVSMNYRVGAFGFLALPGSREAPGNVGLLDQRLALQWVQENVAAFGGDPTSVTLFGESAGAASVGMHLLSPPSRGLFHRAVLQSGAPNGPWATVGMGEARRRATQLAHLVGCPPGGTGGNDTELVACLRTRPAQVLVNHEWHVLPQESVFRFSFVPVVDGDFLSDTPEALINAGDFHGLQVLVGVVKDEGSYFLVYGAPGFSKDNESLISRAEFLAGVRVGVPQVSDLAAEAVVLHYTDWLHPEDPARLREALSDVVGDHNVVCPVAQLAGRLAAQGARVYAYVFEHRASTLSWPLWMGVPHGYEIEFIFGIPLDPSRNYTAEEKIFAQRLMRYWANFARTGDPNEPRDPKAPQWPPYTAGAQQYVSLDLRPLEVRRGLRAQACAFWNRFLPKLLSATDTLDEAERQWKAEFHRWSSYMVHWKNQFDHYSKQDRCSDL

What is called pIC50 is the IC50 on a negative log10 scale, so that one unit is a factor of ten. On to `Nc1c2c(nc3cc(Cl)ccc13)C[C@H]1C=C(CCCCn3cc(CO)nn3)C[C@H]2C1`, for which the values for the pIC50 in [1] and in data set [3] were 9.37 and 6.68, respectively. In data set [2], the Ratio IC50 was determined as 488.
Usually viability stands for a per cent measure of how many cells are alive, often set against a control. Lower therefore signals a greater loss of cells. In [4], `Cn1c2nc3ccccc3c-2c(NCCCCCCCCNc2c3c(nc4ccccc24)CCCC3)c2ccccc21` registered a viability at 10 µM of 41.4%. Also, the pIC50 is 8.64 in [5] and 9.02 in [7]. Further, in [6], the viability at 300 µM turned out to be 37.9%. In addition, the Ratio IC50 in [8] stood at 17.4; in data set [9] it was 368. The viability at 100 µM in data set [10] came to 38.4%. For the same compound, in data set [11], the viability at 1 µM was 78.1%.
The compound `Cn1c2nc3ccccc3c-2c(NCCCCNc2c3c(nc4ccccc24)CCCC3)c2ccccc21` showed a viability at 10 µM in data set [4] of 37.2%. Further, the negative-log IC50 (pIC50) is 7.66 in [5] and 7.28 in data set [7]. In addition, in [6], the viability at 300 µM amounted to 34.8%. Moreover, the viability at 100 µM in [10] came to 33.8%. This compound displayed a viability at 1 µM in [11] of 99.5%.
Turning to `Cn1c2nc3ccccc3c-2c(NCCCCCCNc2c3c(nc4ccccc24)CCCC3)c2ccccc21`, the viability at 10 µM in [4] came out at 34.9%. In addition, the results for the pIC50 in data set [5] and in data set [7] were 8.05 and 8.90, respectively. The compound also showed a viability at 300 µM in data set [6] of 36.5%. Moreover, the viability at 100 µM in data set [10] was determined as 36.2%. In [11], this compound came in with a viability at 1 µM of 40.9%.
